Assay results from ChEMBL document CHEMBL1800038, “Kabiramides J and K, trisoxazole macrolides from the sponge Pachastrissa nux” (J Nat Prod, 2011).
Calls of active or inactive are those of the source. The rule behind the calls is not given here.

Experiments:
Plasmodium falciparum [1] = assay: Antimalarial activity against multidrug-resistance Plasmodium falciparum K1 assessed as growth inhibition by microdilution radioisotope technique; format: functional, organism-based
MCF7 = assay: Cytotoxicity against human MCF7 cells by SRB assay; format: functional, cell-based
[2] = Cytotoxicity against human Fibroblasts by SRB assay; format: cell-based; settings: Fibroblast
Plasmodium falciparum [3] = assay: Antimalarial activity against multidrug-resistance Plasmodium falciparum K1 assessed as growth inhibition at […] by microdilution radioisotope technique; format: functional, organism-based

Compound | IC50 (Plasmodium falciparum [1]) [nM] | IC50 (MCF7) [nM] | IC50 [2] [nM] | inhibition (Plasmodium falciparum [3])
C[C@H]1[C@@H](O)O[C@@H]2O[C@@]3(C)CC[C@H]4[C@H](C)CC[C@@H]1[C@@]24OO3 [ARTENIMOL] | 3.8 |  |  | 
CO[C@H]1C/C=C/c2nc(co2)-c2nc(co2)-c2nc(co2)[C@H](OC)[C@@H](C)[C@@H](O)C[C@@H](C)C[C@H](OC(N)=O)CC(=O)O[C@@H](C[C@H](OC)[C@@H](C)CCC(=O)/C(C)=C/[C@H](C)/C=C/N(C)C=O)[C@@H]1C [KABIRAMIDE G] |  | 20 | 2370 | inactive
CO[C@@H](C[C@@H]1OC(=O)C[C@@H](OC(N)=O)C[C@H](C)C[C@H](O)[C@H](C)[C@@H](OC)c2coc(n2)-c2coc(n2)-c2coc(n2)/C=C/C[C@H](O)[C@H]1C)[C@@H](C)CCC(=O)/C(C)=C/[C@H](C)/C=C/N(C)C=O [KABIRAMIDE J] | 310 | 20 |  | 
CC[C@@]1(O)C(=O)OCc2c1cc1n(c2=O)Cc2cc3ccccc3nc2-1 [CAMPTOTHECIN] |  | 1.6 | 459 | 
CO[C@H]1C/C=C/c2nc(co2)-c2nc(co2)-c2nc(co2)[C@H](OC)[C@@H](C)[C@@H](O)C[C@@H](C)C[C@H](O)CC(=O)O[C@@H](C[C@H](OC)[C@@H](C)CCC(=O)/C(C)=C/[C@H](C)/C=C/N(C)C=O)[C@@H]1C [KABIRAMIDE K] | 390 | 70 |  | 
CO[C@H]([C@H](C)/C=C/N(C)C=O)[C@@H](C)C(=O)CC[C@H](C)[C@H](C[C@@H]1OC(=O)C[C@@H](O)C[C@H](C)C[C@H](O)[C@H](C)[C@@H](OC)c2coc(n2)-c2coc(n2)-c2coc(n2)/C=C/C[C@H](OC)[C@H]1C)OC [KABIRAMIDE D] | 1870 | 20 | 500 | 
CO[C@H]([C@H](C)/C=C/N(C)C=O)[C@@H](C)C(=O)CC[C@H](C)[C@H](C[C@@H]1OC(=O)C[C@@H](OC(N)=O)C[C@H](C)C[C@H](O)[C@H](C)[C@@H](OC)c2coc(n2)-c2coc(n2)-c2coc(n2)/C=C/C[C@H](OC)[C@H]1C)OC [KABIRAMIDE C] | 4790 | 470 | 7590 | 
CO[C@H]([C@H](C)/C=C/N(C)C=O)[C@@H](C)C(=O)CC[C@H](C)[C@H](C[C@@H]1OC(=O)C[C@@H](OC(N)=O)C[C@H](C)C[C@H](O)[C@H](C)[C@@H](OC)c2coc(n2)-c2coc(n2)-c2coc(n2)/C=C/C[C@H](O)[C@H]1C)OC [KABIRAMIDE B] | 1670 | 450 | 950 | 
